{
  "source": "patent US20250136617A1",
  "about": "(The Regents of the University of Colorado, A Body Corporate, priority 2022, published 2025)",
  "key": {"miR-29a": {"tested_on": "miR-29a", "experiment": "qPCR of miR-29a expression in human dermal fibroblasts", "format": "cell-based", "conditions": "24 hours, 0.1, 1 and 10 uM", "method": "An additional secondary screen was performed to further validate activity of UCUF-728 as a selective CXCR4 receptor modulator. Human diabetic and non-diabetic fibroblasts were cultured with increasing concentrations of the compound. The cells were incubated for 24 hours and then total cellular RNA was isolated to examine the ability of the compound to correct the abnormal expression of miR15b, and miR29a. It has been shown that human diabetic skin has increased miR-15b expression at baseline compared to non-diabetic skin (Xu et al. “The role of microRNA-15b in the impaired angiogenesis in diabetic wounds.” Wound Repair Regen 2014; 22(5):671-7).\nDiabetic and non-diabetic fibroblasts were cultured with increasing concentrations of a UCUF-965 compound. The cells were incubated for 24 hours and then total cellular RNA was isolated to examine the ability of the compound to correct the abnormal expression of miR15b, and miR29a. Angiogenesis is regulated by hypoxia and the production of growth factors such as Hypoxia-inducible Factor 1-alpha (HIF-1a) and Vascular Endothelial Growth Factor (VEGF). […] MicroRNA-15b (miR-15b) has been described as a key negative modulator of angiogenesis. Under hypoxia, miR-15b is repressed, resulting in an increased level of VEGF. Over-expression of miR-15b also markedly attenuates hypoxia induced vessel tube formation and cell migration. […]"}, "[1]": {"tested_on": "diabetic wounds in Db mice", "experiment": "Diabetic wound healing, full-thickness excisional 8 mm wounds in Db mice", "format": "in vivo", "conditions": "for reduction of wound closure time vs PBS: 10 μM; for wound surface area vs PBS: post-injury day 6", "method": "The ability of compound UCUF-728 to improve diabetic wound healing in vivo was examined. Full-thickness excisional 8 mm wounds were created in Db mice and were immediately treated with 10 μM UCUF-728 or phosphate-buffered saline (PBS) control. Wound healing over the course of 22 days was monitored. Initial wound size was calculated immediately after wounding, and wound closure was assessed over time as the percentage of initial wound area. […] The effect of UCUF-728 treatment on angiogenesis was assessed using immunohistochemistry for endothelial marker CD31. Representative photos of immunoperoxidase staining for CD31 at 7 days in diabetic wounds treated with PBS or UCUF-728 are shown in FIG. 8A.\nThe ability of UCUF-965, a thiadiazine compound, to improve diabetic wound healing in vivo was examined. Full-thickness excisional 8 mm wounds were created in Db mice and were immediately treated with 10 μM UCUF-965 or PBS control. Wound healing over the course of 22 days was monitored. Initial wound size was calculated immediately after wounding, and wound closure was assessed over time as the percentage of initial wound area. FIG. 13 indicated the wound healing effect of UCUF-965 topical administration on excision wound model on different days after injury. […] UCUF-965-treated diabetic wounds closed around 14 days after treatment whereas control PBS-treated wounds healed at day 22. UCUF-965 is a promising positive allosteric modulator of CXCR4 signaling to treat diabetic would healing.\nAll animal experiments were approved by the Institutional Animal Care and Use Committee at the University of Colorado Denver—Anschutz Medical Campus, and experimental protocols followed the guidelines described in the NIH Guide for the Care and Use of Laboratory Animals. In these experiments, 10 week old, female, genetically diabetic C57BKS.Cg-m/Leprdb/J (Db) mice and heterozygous, non-diabetic (non-Db), age-matched female controls from the Jackson Laboratory (Bar Harbor, ME) were used. Mice were anesthetized with inhaled isoflurane. Each mouse was shaved and depilated before wounding. The dorsal skin was swabbed with alcohol and Betadine (Purdue Pharma, Stamford, CT). Each mouse received a single, full-thickness dorsal wound (including panniculus carnosum) with an 8-mm punch biopsy (Miltex Inc, York, PA). After wounding, a Hamilton syringe was used to deliver 50 μL of either 10 uM test compound or PBS, as a control. 10 μL were injected intradermally at 12, 3, 6 and 9 o'clock and at the wound base. […] Mice pictures were taken every other day, wound size was analyzed by Image J. A full-thickness skin sample, centered on the wound, was harvested 3 and 7 days after surgery (n=5 per timepoint)."}},
  "note": "“Also recorded” adds a separate entry of the source.",
  "data": [
    {"smiles": "COc1ccc(OC)c(NS(=O)(=O)c2ccc(-c3cnc(C4CC4)o3)cc2)c1", "note": "[Oxazole Entry 19, 4-(2-Cyclopropyloxazol-5-yl)-N-(2,5-dimethoxyphenyl)benzenesulfonamide]", "values": [
      {"measurement": "miR-29a expression", "setting": "miR-29a; listed as UCUF-728", "value": "significant decrease in miR-29a expression level; also recorded: reduced miR-29a expression"},
      {"measurement": "reduction of wound closure time vs PBS", "setting": "[1]", "value": 36, "unit": "%"},
      {"measurement": "wound surface area vs PBS", "setting": "[1]", "value": "decrease in wound surface area"}
    ]},
    {"smiles": "CCOc1ccccc1-c1nnc2n1N=C(c1ccc(N3CCCC3)cc1)CS2", "note": "[Thiadiazine Entry 23, 3-(2-ethoxyphenyl)-6-(4-(pyrrolidin-1-yl)phenyl)-7H-[1,2,4]triazolo[3,4-b][1,3,4]thiadiazine]", "values": [
      {"measurement": "miR-29a expression", "setting": "miR-29a; listed as UCUF-965", "value": "significant decrease in miR-29a; also recorded: decreased"},
      {"measurement": "reduction of wound closure time vs PBS", "setting": "[1]", "value": 36, "unit": "%"},
      {"measurement": "wound surface area vs PBS", "setting": "[1]", "value": "decrease in wound surface area"}
    ]}
  ]
}
